# Test results taken from patent US20240287033A1, “DEGRADERS OF TISSUE TRANSGLUTAMINASE 2 (TG2)” (Northwestern University, priority 2023, published 2024).
# Entries after “also recorded” stand apart in the source; their conditions may differ. Read-outs that look alike come from different tables or passages of the source.
# Columns and labels:
# [1] = Solubility observations; format: physicochemical
# [2] = biological target: T1, full-length TG2 (Homo sapiens, UniProt P21980); conditions: literature value (ref. 41); read-out: KD of MT4 to TG2, previously reported result; cited from earlier work
# T1 sequence (P21980 1-687): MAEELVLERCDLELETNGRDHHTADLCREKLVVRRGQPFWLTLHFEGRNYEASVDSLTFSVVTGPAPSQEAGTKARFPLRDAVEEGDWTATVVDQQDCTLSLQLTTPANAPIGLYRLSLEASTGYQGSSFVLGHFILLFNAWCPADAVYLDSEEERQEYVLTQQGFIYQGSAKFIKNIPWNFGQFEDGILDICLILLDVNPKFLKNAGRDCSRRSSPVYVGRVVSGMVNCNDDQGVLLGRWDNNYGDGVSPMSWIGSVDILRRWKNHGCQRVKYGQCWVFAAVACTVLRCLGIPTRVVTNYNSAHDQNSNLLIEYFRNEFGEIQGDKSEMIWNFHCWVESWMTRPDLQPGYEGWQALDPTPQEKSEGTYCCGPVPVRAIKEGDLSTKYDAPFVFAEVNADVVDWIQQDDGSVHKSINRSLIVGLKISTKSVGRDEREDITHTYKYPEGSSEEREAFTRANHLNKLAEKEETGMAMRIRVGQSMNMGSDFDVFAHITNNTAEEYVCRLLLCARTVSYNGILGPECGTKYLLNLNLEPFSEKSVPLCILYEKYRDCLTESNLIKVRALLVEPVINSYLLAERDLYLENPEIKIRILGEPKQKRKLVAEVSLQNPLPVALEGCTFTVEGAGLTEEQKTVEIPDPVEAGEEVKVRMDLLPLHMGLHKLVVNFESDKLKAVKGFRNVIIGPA
# [3] = biological target: T1, full-length TG2; assay: Isothermal titration calorimetry (ITC) binding to TG2; conditions: for Kd: titration into TG2 at 30° C., PBS with 1% DMSO, read-out: equilibrium dissociation constant KD (ITC)
# Procedure: Sample Preparation. Protein dilutions in PBS with 1% DMSO were prepared from stock solutions of […] in PBS. The protein dilutions were initially equilibrated on ice for 5 min, then for 20 min at 30° C. The solutions were filtered using a […] Millipore centrifugal device just prior to insertion in the ITC cell. The solubility of the protein solutions was confirmed independently by DLS (data not shown), and the concentration of each solution (after filtration) was measured with a NanoDrop 2000 Instrument.
# All compound dilutions were made in PBS, and the final DMSO concentration in each solution was carefully adjusted to 1%.
# ITC Experiments. All ITC experiments were performed on an Affinity Low Volume instrument (Waters/TA Instruments) equipped with a fixed 198 μL gold cell. In each experiment, 320 μL of protein solution was loaded into the ITC cell, and 200 μL of the corresponding compound was in the syringe. The data were acquired using ITCRun data acquisition software. The incremental ITC experiments consisted of multiple 2 μL injections at 50-350-second intervals with a stirring speed of 100 revolutions per minute (rpm). The Auto Equilibrate function allowed for the equilibration of the baseline to a peak-to-peak standard deviation of less than 12 nW. For each compound, separate control experiments were performed to evaluate the heat of dilution. The control experiments were set with identical parameters but performed with reaction buffer instead of protein in the ITC cell and consisted of fewer (6-10) injections.
# Data Analysis. ITC data were analyzed with Nano Analyze Software (Waters/TA Instruments) using the “independent sites” model after correction for heats of dilution.
# [4] = test system: OVCAR5 cells; assay: Transwell migration assay, OVCAR5; format: cell-based
# Procedure: (§1) For the scratch assay, confluent 6-well plates were scratched with a pipette tip, washed and treated with compounds or vehicle. The plate was photographed at set time points and the area of wound closure was quantified with ImageJ. Cell migration was assessed by using Transwell inserts (8 μm pore size, Merck-Millipore, Watford, UK). Briefly, 15,000 cells were seeded in the upper chambers of trans-wells in serum-free media containing compounds or control, while media containing 10% serum was added to the lower chamber. After 18 hours, cells invaded through the transwells were fixed with warm 4% PFA for 20 min at room temperature and stained with crystal violet for 3 min. The membranes were removed, mounted on cover slides and cells were counted using a microscope at 40× magnification.
# [5] = test system: SKOV3 cells; assay: Solid phase adhesion assay on fibronectin, SKOV3; format: cell-based
# Procedure: (§2) Briefly, wells were coated with 10 μg/ml fibronectin diluted in PBS for one hour. 30,000 cells pretreated with compounds for 6 hours were seeded and allowed to attach for 30 minutes. After washing with PBS to remove unattached cells, cells adhering to coated wells were quantified by using the CCK-8 assay (ApexBio), following the manufacturer's protocol. Relative absorbance measured at 496 nm was used to estimate the relative number of the cell attached to fibronectin coated wells.
# [6] = biological target: T2, TG2 (Homo sapiens, UniProt P21980); assay: Western blot analysis of TG2 degradation in SKOV3 cells; format: cell-based
# T2 construct: tested in multiple ovarian cancer cell lines that express TG2 for their ability to degrade the protein; endogenous in cells; host or cells: OVCAR5 and SKOV3 ovarian cancer cells
# T2 sequence (P21980 1-687): T1 sequence (P21980 1-687)
# Procedure: (§3) SKOV3 cells were purchased from ATCC. OVCAR5 cells were obtained from Dr. Marcus Peter at Northwestern University. Cells were maintained at 37° C. in an environment of 5% CO2 and 100% humidity. The media used for culturing the cell lines are included in Table 1. Cells lines used in all experiments were at low-passages and were confirmed to be pathogen and mycoplasma-free by Charles River Animal Diagnostic Services. Cell lines were authenticated by IDEXX BioAnalytics with short tandem repeat (STR) profiling. MG132 was obtained from SelleckChem. Anti-TG2 antibody (cat #: MAB3839-I-100UG) was purchased from Millipore Sigma, GAPDH antibody (cat #: H86504M) was purchased from Meridian Bioscience.
# (§4) Briefly, SKOV3 and OVCAR5 cells were seeded on 6 cm dishes and treated with different concentrations of compounds at different time points. Proteins were extracted using RIPA buffer and quantified using the Bradford assay. After gel electrophoresis and transfer, PDVF membranes were blocked with TBS-Tween 5% BSA for one hour and incubated with primary antibodies 20 (1:1000 dilution, overnight at 4° C.). After incubation with the secondary antibody (anti rabbit/mouse-horseradish peroxidase 1:1000 dilution) for 1 h at room temperature, signal was developed using SuperSignal West Pico PLUS Chemiluminescent Substrate (Thermo Fisher Scientific cat #: 34580) and captured with an ImageQuant LAS 4000 machine. To detect additional proteins, membranes were treated with Restore Western Blot Stripping Buffer (Thermo Fisher Scientific cat #: 21059), blocked, and then incubated with primary antibody.
# [7] = test system: OVCAR5 cells; assay: Cell viability assay (CCK-8), OVCAR5; format: cell-based; conditions: 0.1-30 μM, 5 days
# Procedure: (§5) The numbers of viable cells were quantified by using the CCK-8 assay (ApexBio) following the manufacturer's directions. Absorbance was measured by a spectrophotometer at 495 nm and used estimate the viability of the cells.
# [8] = biological target: T2, TG2; assay: Western blot analysis of TG2 degradation in OVCAR5 cells; format: cell-based
# Procedure: as §3, §4
# [9] = test system: SKOV3 cells; assay: Wound-healing (scratch) assay, SKOV3; format: cell-based
# Procedure: as §1
# [10] = test system: SKOV3 cells; assay: Transwell migration assay, SKOV3; format: cell-based
# Procedure: as §1
# [11] = test system: OVCAR5 cells; assay: Wound-healing (scratch) assay, OVCAR5; format: cell-based
# Procedure: as §1
# [12] = test system: SKOV3 cells; assay: Cell viability assay (CCK-8), SKOV3; format: cell-based; conditions: 0.1-30 μM, 5 days
# Procedure: as §5
# [13] = test system: OVCAR5 cells; assay: Solid phase adhesion assay on fibronectin, OVCAR5; format: cell-based
# Procedure: as §2
# [14] = 10 μM compound 6 hrs, 10 μM VHL ligand
# [15] = dosed every 6-8 hours over 24 hours, 1 or 10 μM
smiles,measurement,setting,value
"Cc1cc(N(C)C)nc(Nc2ccc(NC(=O)Cc3ccccc3)cc2)n1 [MT4, reference compound]",solubility (in words),[1],lower solubility than the PROTAC compounds
same,Kd,[2],5.1 µM
same,Kd,[3],7.8 µM
"Cc1cc(N(C)CCOCCC(=O)N[C@H](C(=O)N2C[C@H](O)C[C@H]2C(=O)NCc2ccc(-c3scnc3C)cc2)C(C)(C)C)nc(Nc2ccc(NC(=O)Cc3ccccc3)cc2)n1 [Compound 7, (2S,4R)-1-((S)-3,3-dimethyl-2-(3-(2-(methyl(6-methyl-2-((4-(2-phenylacetamido)phenyl)amino)pyrimidin-4-yl)amino)ethoxy)propanamido)butanoyl)-4-hydroxy-N-(4-(4-methylthiazol-5-yl)benzyl)pyrrolidine-2-carboxamide]",solubility (in words),[1],poorer solubility than compound 11
same,"cell migration, transwell migration assay",[4],potently inhibited the migration
same,adhesion of cells to fibronectin,[5],significantly reduced the adhesion
same,TG2 degradation with VHL ligand as competitive inhibitor,[6]; [14],prevented degradation of TG2; also recorded: but not when combined with VHL ligand
same,TG2 degradation (western blot),"[6]; 6 hours, up to 10 μM",significantly reduced the level of TG2; also recorded: Degradation of TG2 was observed
same,TG2 levels after longer treatment (western blot),"[6]; 24 hours, single dosing",did not induce reduction in TG2 levels
same,TG2 levels at 24 hours after repeated dosing,[6]; [15],persistent and dose-dependent decreased TG2 levels
same,time of maximal TG2 degradation,[6]; higher concentrations (10 and 30 μM),6 h
same,cell death / viability,[7],No significant cell death; also recorded: no cell death was observed
same,TG2 degradation with VHL ligand as competitive inhibitor,[8]; [14],prevented degradation of TG2
same,TG2 degradation (western blot),"[8]; 6 hours, 0.1-10 μM",significantly reduced the level of TG2; also recorded: Degradation of TG2 was observed
same,TG2 levels after longer treatment (western blot),"[8]; 24 hours, single dosing",did not induce reduction in TG2 levels
same,TG2 levels at 24 hours after repeated dosing,[8]; [15],persistent and dose-dependent decreased TG2 levels
same,"cell migration, wound-healing assay",[9],similarly inhibited the migration
same,decrease in affinity relative to the parental compound MT4,[3]; ITC KD ratio versus MT4,> 12.8 fold
same,Kd,[3],> 100 µM
same,"cell migration, transwell migration assay",[10],similarly inhibited the migration
same,"cell migration, wound-healing assay",[11],potently inhibited the migration
same,cell death / viability,[12],No significant cell death; also recorded: no cell death was observed
same,adhesion of cells to fibronectin,[13],significantly reduced the adhesion
